From PubChem BioAssay AID463203 (Broad Institute, 2010)
Activity calls are given as the source filed them.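 Rule for the calls: active = more than half of replicate measurements showing over 20% loss of kinase signal relative to plate controls; inconclusive = some but at most half of replicates over 20% loss; inactive = no replicate over 20% signal loss.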

Target: Glycogen synthase kinase-3 alpha (Homo sapiens) (UniProt P49840)
Assay: concentration-response blocking of human GSK3A – biochemical, luminescence, cell-free homogeneous, retest, dose response (AID 463203)
Conditions: GSK-3 alpha enzyme, ADP-Glo luminescence, 60 min

Sequence of Glycogen synthase kinase-3 alpha (Homo sapiens) (P49840 whole entry, looked up): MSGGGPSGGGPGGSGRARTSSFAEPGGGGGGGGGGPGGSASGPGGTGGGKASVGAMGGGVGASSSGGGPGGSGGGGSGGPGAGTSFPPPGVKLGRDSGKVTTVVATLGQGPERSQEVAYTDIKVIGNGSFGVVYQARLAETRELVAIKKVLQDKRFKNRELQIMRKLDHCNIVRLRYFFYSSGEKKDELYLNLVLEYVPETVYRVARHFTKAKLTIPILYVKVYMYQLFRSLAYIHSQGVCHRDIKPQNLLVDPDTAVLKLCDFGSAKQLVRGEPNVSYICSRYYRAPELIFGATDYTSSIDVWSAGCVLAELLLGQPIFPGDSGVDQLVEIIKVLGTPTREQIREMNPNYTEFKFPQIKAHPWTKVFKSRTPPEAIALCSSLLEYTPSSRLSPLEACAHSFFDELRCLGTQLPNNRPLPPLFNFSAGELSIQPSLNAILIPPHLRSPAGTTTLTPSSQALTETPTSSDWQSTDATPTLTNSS

SMILES	AC50
CCOC(=O)c1nc(NCc2ccccc2C)c2ccccc2n1	> 30 µM (inactive)
O=C(Nc1nnc(-c2ccco2)s1)C1CCCCC1	> 30 µM (inactive)
O=c1[nH]c2c(s1)C(c1ccccc1)C1C3CCC(C3)C1S2 (stereo unspecified)	1.98 µM
O=C(CSc1nnc(-c2ccncc2)s1)Nc1ccccc1	> 30 µM (inactive)
CC(=O)O[C@@H]1[C@@H](O)[C@@H](O)[C@H](Oc2c(-c3ccc(O)cc3)oc3c(CC=C(C)C)c(O)cc(O)c3c2=O)O[C@H]1C	14.4 µM
Oc1[nH]c2ccc(Br)cc2c1N=Nc1ccc(F)cc1	7.48 µM
O=C(NCCO)c1ccccc1O	> 30 µM (inactive)
Cc1c(C(=O)OC2CCCCC2)[nH]c2c1C(=O)CC(C)(C)C2	> 30 µM (inactive)
Cc1ccc(NC(=O)CSc2nnc(-c3ccncc3)o2)cc1	> 30 µM (inactive)
CN1CCCN(C(=O)CC(c2ccccc2)c2ccccc2)CC1	> 30 µM (inactive)
NC(=O)c1c(NC(=O)CN2C(=O)NC(Cc3ccccc3)C2=O)sc2c1CCC2 (stereo unspecified)	20.3 µM
CC(=O)Nc1ccccc1C	> 30 µM (inactive)
CCOC(=O)c1nc2sc3c(c2c(=O)[nH]1)CCC(C)C3 (stereo unspecified)	> 30 µM (inactive)
CC(C)COc1ncnc2c1sc1nc3c(cc12)COC(C)(C)C3	> 30 µM (inactive)
O=C1c2ccccc2C(=O)c2c(Nc3ccc(CCO)cc3)ccc(O)c21	> 30 µM (inactive)
Nc1nc(SCC(=O)Nc2ccc(Oc3ccccc3)cc2)n[nH]1	> 30 µM (inactive)
CC1=C(C(=O)OC(C)C)C(c2cccs2)n2ncnc2N1 (stereo unspecified)	28.8 µM
N#CCCN(Cc1ccccc1)S(=O)(=O)c1cccs1	> 30 µM (inactive)
Fc1cccc(Nc2ncnc3sccc23)c1	> 30 µM (inactive)
COc1ccc(OCC(=O)Nc2ccc3c(c2)C(=O)NC3=O)cc1	12.2 µM
CCOC(=O)N1CCc2c(sc3nc4n(c(=O)c23)N=C(C)CS4)C1	> 30 µM (inactive)
COc1ccc(-n2c(O)c(C=NCCCn3ccnc3)c(=O)[nH]c2=O)cc1	5.43 µM

SMILES	AC50
Cc1ccc(N=CC2=C(O)CC(C)(C)CC2=O)nc1	> 30 µM (inactive)
COc1cc(/C=N/O)ccc1OCc1ccc([N+](=O)[O-])cc1	> 30 µM (inactive)
CCOC(=O)c1cnc2c(C)cc(Cl)cc2c1N1CCN(C)CC1	> 30 µM (inactive)
CCOC(=O)c1c(NC(=O)CN2C(=O)NC3(CCCCC3C)C2=O)sc(C)c1CC (stereo unspecified)	> 30 µM (inactive)
Cc1cc(O)c(Oc2cc(C)cc(O)c2O)c(O)c1	> 30 µM (inactive)
COc1cc(/C=N/NC(=O)c2cccnc2)cc(Br)c1O	> 30 µM (inactive)
COc1ccc2nc(NC(=O)C3CCCN3S(=O)(=O)c3ccc(C)cc3)sc2c1 (stereo unspecified)	> 30 µM (inactive)
Cc1cccc(NC(=O)CSc2nnc([C@@H](N)Cc3c[nH]c4ccccc34)o2)c1C	> 30 µM (inactive)
COc1cc(C2c3sc(=O)[nH]c3SC3C4CCC(C4)C23)ccc1O (stereo unspecified)	1.22 µM
Nc1c(C(=O)O)ccc2c1C(=O)c1ccccc1C2=O	7.87 µM
O=Cc1cn(-c2ccccc2)nc1-c1cccnc1	> 30 µM (inactive)
Cc1cccc(NC(=O)c2sc(Cl)nc2-c2ccccc2)c1	> 30 µM (inactive)
O=C(CCCN1C(=O)C2CCCCN2C1=O)N1CCN(c2ccc([N+](=O)[O-])cc2)CC1 (stereo unspecified)	> 30 µM (inactive)
CSc1ccc(CN2CCN(Cc3ccc([N+](=O)[O-])cc3)CC2)cc1	> 30 µM (inactive)
C/C(=C(/CCO)SSCC1CCCO1)N(C=O)Cc1cnc(C)nc1N (stereo unspecified)	> 30 µM (inactive)
CCc1cc(C(=O)c2ccc(C)cc2)c(NC(=O)CCl)s1	> 30 µM (inactive)
CN(C)c1ccc(CN2CCCCC2)cc1	> 30 µM (inactive)
COc1cc(/C=C2\Oc3ccc(C#Cc4ccc(O)cc4)cc3C2=O)cc(OC)c1	> 30 µM (inactive)
CC(C)CNc1cc(N2CCCC2)ccc1[N+](=O)[O-]	> 30 µM (inactive)
O=C(Nc1cccc(C(=O)NC2CCCCC2)c1)c1ccccc1	> 30 µM (inactive)
Cc1ccc(NC(=O)CSc2nnc(-c3ccncc3)s2)cc1	> 30 µM (inactive)
O=[N+]([O-])c1cnc2nc(-c3ccncc3)nn2c1O	8.27 µM

SMILES	AC50
O=C(O)c1ccc2c(c1Nc1ccccc1)C(=O)c1ccccc1C2=O	18.6 µM
N#Cc1c(NC(=O)CSc2n[nH]c(N)n2)oc(-c2ccccc2)c1-c1ccccc1	> 30 µM (inactive)
O=C(CSc1nc2ccccc2c(=O)n1-c1ccc(F)cc1F)c1c[nH]c2ccccc12	> 30 µM (inactive)
COc1ccc(-c2noc(CSc3nc(-c4ccccc4)cc(=O)[nH]3)n2)cc1	> 30 µM (inactive)
COC(=O)c1sccc1-c1ccc(C(N)=O)o1	26.8 µM
COC(=O)c1cc(OC)nc2ccc(Br)cc12	> 30 µM (inactive)
c1ccc(-c2noc(CSc3nnnn3-c3ccccc3)n2)cc1	> 30 µM (inactive)
CCC(=N\NC(=O)COc1ccccc1OC)/C(CC)=N/NC(=O)COc1ccccc1OC	> 30 µM (inactive)
Cn1c(=O)c2c(-c3ccccc3)n(Cc3ccccn3)cc2n(C)c1=O	> 30 µM (inactive)
Oc1[nH]c2ccc(Br)cc2c1N=Nc1nn[nH]n1	23.3 µM
CN(Cc1c(C(=O)N/N=C/c2ccccc2)nnn1-c1nonc1N)C1CCCCC1	> 30 µM (inactive)
O=C(CCSc1nc(-c2ccc3c(c2)OCO3)cc(C(F)(F)F)n1)NCc1ccco1	> 30 µM (inactive)
Cc1nc(SCCC(C)C)c([N+](=O)[O-])[nH]1	> 30 µM (inactive)
CCN(CC)Cc1c(C(=O)N/N=C(\C)c2ccncc2)nnn1-c1nonc1N	9.96 µM
CC(C)c1c(C(=O)N/N=C/c2ccncc2)nnn1-c1nonc1N	> 30 µM (inactive)
COC(=O)c1c(NC(=O)CN2C(=O)NC3(CCC(C)CC3)C2=O)sc2c1CCC2 (stereo unspecified)	> 30 µM (inactive)
Cc1c(C(=O)N/N=C/c2cccnc2)nnn1-c1nonc1N	> 30 µM (inactive)
CCN1C(=O)c2ccc(C(=O)NCc3ccc4c(c3)OCO4)cc2C1=O	> 30 µM (inactive)
COc1ccc2[nH]c(C)c(CN3CCCCC3)c(=O)c2c1	> 30 µM (inactive)
CCn1ccc(C(=O)Nc2ccsc2C(=O)OC)n1	30.8 µM
COc1ccc(Nc2nc(Cl)c(C=O)s2)cc1	> 30 µM (inactive)
Cc1cc2[nH]c(=S)[nH]c2cc1C	> 30 µM (inactive)

SMILES	AC50
COc1ccc(CNC(=O)CN(CC2CCCO2)C(=O)CNS(=O)(=O)c2ccccc2)cc1 (stereo unspecified)	> 30 µM (inactive)
CCOC(=O)c1cc(CC)sc1NC(=O)CN1CCN(C(=O)c2ccco2)CC1	> 30 µM (inactive)
O=C(COc1ccccc1F)NC12CC3CC(CC(C3)C1)C2	> 30 µM (inactive)
NNc1nc2sc3c(c2c(=O)[nH]1)CCc1ccccc1-3	> 30 µM (inactive)
CC1=C(C(=O)OCc2ccccc2)C(c2cccc(Br)c2)NC(=O)N1 (stereo unspecified)	28.7 µM
Cc1cccc(N(C)C(=O)C2CCCN2S(=O)(=O)c2cccc3nsnc23)c1 (stereo unspecified)	24.8 µM
c1nc(NC2CCCCCC2)c2[nH]cnc2n1	29.8 µM
COC(=O)/C=C1/S/C(=N/NC(=O)c2ccccc2OC)NC1=O	> 30 µM (inactive)
COc1cc2c(cc1OC)C(C)N(C(=O)Cn1ncc3c1-c1cc(C)ccc1OC3)CC2 (stereo unspecified)	> 30 µM (inactive)
O=C(NCCCn1ccnc1)C(Cl)(Cl)Cl	> 30 µM (inactive)
CCOCC(=O)Nc1nc2ccc(OCC)cc2s1	> 30 µM (inactive)
O=c1[nH]nnc2sc3c(c12)CCCC3	> 30 µM (inactive)
COc1cc(C(=O)Oc2cc(C)cc(C)c2)cc(OC)c1OC	> 30 µM (inactive)
CN(c1nc2nonc2nc1NC1CC1)C1CCOC1 (stereo unspecified)	> 30 µM (inactive)
CC(C)CC(O)C1CCN(C(=O)CCc2nnc(-c3ccc4c(c3)OCO4)o2)CC1 (stereo unspecified)	> 30 µM (inactive)
COc1ccc2c3c(cccc13)OC2=O	> 30 µM (inactive)
COC(=O)Nc1nnc(COc2ccccc2)s1	> 30 µM (inactive)
Cc1ccc(CSc2nnc(SCC(=O)N/N=C/c3ccc(C(=O)O)cc3)s2)cc1	> 30 µM (inactive)
COc1cc2c(C#N)c(N3CCCCC3)nc(N)c2c(N)n1	13.4 µM
CCCCc1cc(=O)oc2cc(O)ccc12	25.9 µM
Nn1c(SCc2ccccc2F)nnc1-c1ccncc1	> 30 µM (inactive)
Cc1nc(SCC(=O)Nc2ccccc2C(F)(F)F)c(C#N)c(C)c1CC(=O)c1ccc(Br)cc1	> 30 µM (inactive)

SMILES	AC50
O=C1NC(=Nc2ccccc2Cl)S/C1=C\c1cc([N+](=O)[O-])ccc1O	3.23 µM
CCOC(=O)N1CCC(N2CCN(S(=O)(=O)c3ccc(OC)cc3)CC2)CC1	> 30 µM (inactive)
Fc1ccc(-c2nc3n(n2)Cc2ccccc2-3)cc1	> 30 µM (inactive)
COc1ccc(OCC(=O)N/N=C/c2ccc(N(C)C)cc2)cc1	> 30 µM (inactive)
CC1CCCC(C)N1C(=O)COC(=O)Cc1c[nH]c2ccccc12 (stereo unspecified)	> 30 µM (inactive)
CCN(C(=O)C1CCCN1S(=O)(=O)c1cccc2nsnc12)c1ccccc1 (stereo unspecified)	23.9 µM
CN(C(=O)Oc1ccc([N+](=O)[O-])cc1)c1ccccc1	> 30 µM (inactive)
Cc1ccc(C(=O)c2cc(C)sc2NC(=O)CN2CCN(C(=O)c3ccco3)CC2)cc1	> 30 µM (inactive)
Nc1nc(NCCOCCO)nc(N2CCCCCC2)c1[N+](=O)[O-]	26.4 µM
O=C(Cn1c(NCCO)nc2ccccc21)NCC1CCCO1 (stereo unspecified)	> 30 µM (inactive)
COc1ccc(/C=C2\Oc3cc(OCC(=O)N4CC(O)C[C@H]4C(=O)O)ccc3C2=O)c(OC)c1OC (stereo partly specified)	> 30 µM (inactive)
COc1cccc(/C=N/NC(=O)COc2cccc3cccnc23)c1O	> 30 µM (inactive)
Cc1noc(C)c1COc1ccc2ccc(=O)oc2c1	> 30 µM (inactive)
CCCNC(=O)Cn1c(-c2ccc(F)cc2)cc(C(=O)OCC)c1C	> 30 µM (inactive)
O=C(COc1ccccc1Cl)NC1CC1	> 30 µM (inactive)
COc1ccc(/C=C/c2nc(N)nc(-c3ccccc3O)n2)cc1	> 30 µM (inactive)
O=C(NCCN1CCc2ccccc2C1)Nc1ccc(F)cc1	> 30 µM (inactive)
CCc1cc(C(=O)OC)c(NC(=O)CN2CCN(C(=O)c3ccco3)CC2)s1	> 30 µM (inactive)
